Experiments:
[1] = system: AP-1 responsive human collagenase promoter (-73Col-LUC); experiment: AP-1 transcriptional activity, -73Col-LUC luciferase reporter in Jurkat cells; type: cell-based; conditions: for -73Col-LUC luciferase activity, agent administered alone: TPA 50 ng/ml or A23187 1 μg/ml, 9 hours; for -73Col-LUC luciferase activity, two costimuli together: TPA+A23187 or anti-CD3+anti-CD28
Description: T Ag Jurkat cells, a derivative of the human Jurkat T-cell line stably transfected with the SV40 large T antigen (a gift from Dr. G. Crabtree) were grown to 10^6/ml, then resuspended at 2×10^7/ml in fresh complete medium. 10^7 cells (0.5 ml) were mixed with reporter plasmids (5 μg, −79 jun-LUC; 10 μg, −73/+63 Col-LUC or −60/+63 Col-LUC; 5 μg IL2-LUC) at room temperature for 10 minutes, then electroporated at 250 V, 960 uF in a 0.4 cm cuvette using a Bio-Rad GenePulser. After electroporation, cells were immediately put on ice for 10 minutes, then resuspended in 10 ml complete medium for 24 hours before stimulation. 0.5 μg of pSRaIIc-Jun were used to transfect 10^7 Jurkat cells. Luciferase activity was determined as described (Deng and Karin, supra., 1993).
The effects of the different stimuli on AP-1 transcriptional activity in Jurkat cells were examined using a truncated, AP-1 responsive, human collagenase promoter (Angel, et al., Cell, 49:729-739, 1987) fused to the luciferase (LUC) reporter gene. Jurkat cells were transfected with 10 μg of either −73Col-LUC or −60Col-LUC reporter plasmids. 24 hours after transfection, the cells were aliquoted into 24 well plates and incubated for 9 hours with 50 ng/ml TPA, 1 μg/ml A23187 or 100 ng/ml CsA, either alone or in combinations, as indicated. The cells were harvested and luciferase activity was determined. The results shown are averages of three experiments done in triplicates.

[2] = system: JNK (55 kD and 46 kD forms); experiment: In-gel kinase assay of JNK in Jurkat whole cell extracts; type: cell-based, human; conditions: for JNK activation, in-gel kinase assay, agent alone: TPA 50 ng/ml or A23187 1 μg/ml
Description: In-gel kinase assay was performed as described by Kameshita and Fujisawa, Anal. Biochem., 183:139, (1989) with slight modifications. Briefly, c-Jun binding proteins were isolated from whole cell extracts by using GSH-agarose beads containing 80 μg GST-cJun as described above. Proteins were eluted in Laemlli sample buffer and resolved on 10% SDS-polyacrylamide gel, which was polymerized in the absence or presence of GST-cJun (40 μg/ml). After electrophoresis, the gel was washed twice, 30 minutes each time with 100 ml of 20% 2-propanol, 50 mM HEPES pH 7.6 to remove SDS. After the gel was washed twice, 30 minutes each time, with 100 ml of buffer A (50 mM HEPES pH 7.6, 5 mM β-mercaptoethanol), it was incubated in 200 ml of 6M urea in buffer A at room temperature for 1 hr, followed by serial incubations in buffer A containing 0.05% Tween 20 and either 3M, 1.5M or 0.75M urea. After the gel was washed several times, 1 hr each time, with 100 ml of buffer A containing 0.05% Tween 20 at 4° C., it was incubated with kinase buffer containing 50 μM ATP and 5 μCi/ml γ-^32P-ATP at 30° C. for 1 hour. After the reaction, the gel was washed with 100 ml of 5% tricholoroacetic acid and 1% sodium pyrophosphate at room temperature several times, followed by drying and autoradiography.
JNK exists in two forms, 46 kD and 55 kD in size, both of which are activated by external stimuli (Hibi, et al., supra, 1993; Deng, et al., supra, 1993). […] Whole cell extracts (WCE) of Jurkat cells incubated with TPA (T, 50 ng/ml), A23187 (A, 1 μg/ml) or CsA (100 ng/ml) for 15 minutes, alone or in combination, were separated by SDS-PAGE (100 μg protein/lane) on gels that were cast in the absence or presence of GST-cJun (1-223). The gels were subjected to renaturation protocol and incubated in kinase buffer containing γ-^32P-ATP. The protein bands corresponding to the 55 kD and 46 kD forms of JNK are indicated.
The regulation of JNK in response to T cell activation with anti-CD3 and anti-CD28 antibodies was examined. Jurkat cells (1×10^7) were incubated for 15 minutes with either normal mouse serum, 1 μg/ml anti-CD3 and/or 2 μg/ml anti-CD28, in the absence or presence of 100 ng/ml CsA, as indicated. WCE were prepared and 100 μg samples were analyzed for JNK activation using the in-gel kinase assay, as described above.

JNK = experiment: Solid-state phosphorylation assay of JNK in mouse thymocytes; type: cell-based
Description: Jurkat cells were grown in RPMI with 10% fetal calf serum (FCS), 1 mM […], 100 μ/ml penicillin (pen), 100 μg/ml streptomycin (strep) and 250 ng/ml amphotericin (complete medium). HeLa S3, CV-1 and FR3T3 cells were grown in DMEM supplemented with 10% FCS, 100 μ/ml pen, 100 μg/ml strep. All cells were cultured at 37° C. with 5% CO2. Mouse thymocytes were prepared from 8 week old Balb/C mice by gradient centrifugation on lymphocyte separation medium (Pharmacia). The lymphocytes were cultured for 5 hours at 37° C. in RPMI+10% FCS, prior to stimulation. Jurkat cells were labelled for 90 minutes with 0.5 mCi/ml ^32P-orthophosphate (ICN Radiochemicals) in medium lacking sodium phosphate. Labelled cells were treated with TPA (Sigma) and A23187 (Calbiochem) 1 μg/ml as indicated. When used, cyclosporin A (CsA) (Sandoz) 100 ng/ml in ethanol was added 10 minutes prior to cell stimulation. Following stimulation, the labelled cells were washed twice with ice-cold PBS then lysed with RIPA buffer (10 mM Tris pH 7.5, 150 mM NaCl, 2 mM EDTA, 1% Triton-X 100, 1% DOC, 0.1% SDS) supplemented with phosphatase inhibitors (20 mM β-glycerophosphate, 10 mM p-nitro-phenylphosphate, 1 mM Na3 VO4), and protease inhibitors (10 μg/ml leupeptin, aprotonin, pepstatin and 1 mM phenylmethyl sulfonylfluoride). c-Jun was immunoprecipitated as described (Binetruy, et al., supra., 1992) and analyzed by SDS-PAGE, followed by peptide mapping (Boyle, et al., Cell, 64:573-584, 1991; Lin, et al. Cell, 70:777-789, 1992). Ha-Ras was immunoprecipitated with Y13-259. Ha-Ras bound nucleotides were extracted and analyzed as described by Satoh, et al., (Proc. Natl. Acad. Sci., USA, 15:5993-5997, 1990).
We examined whether elevated intracellular Ca^++ affects JNK activation in other cells. […] Cultures of FR3T3, CV-1, PC12 and mouse thymocytes were incubated for 15 minutes in the presence of TPA (50 ng/ml, T), A23817 (1 μg/ml, A) and/or CsA (100 ng/ml), as indicated. […] After washing, JNK activity was determined by solid-state phosphorylation assay as described above.

## CNc1ccc2oc(C[C@H]3O[C@@]4(CC[C@H]3C)O[C@H]([C@H](C)C(=O)c3ccc[nH]3)[C@H](C)C[C@H]4C)nc2c1C(=O)O [A23187]
[1]
  -73Col-LUC luciferase activity, agent administered alone: marginal effects
  -73Col-LUC luciferase activity, two costimuli together: synergistic activation
[2]; A23187 1 μg/ml plus TPA 50 ng/ml, 15 minutes
  JNK activation, in-gel kinase assay, costimulation with TPA: potentiated its activation by TPA
[2]; Jurkat, 15 minutes
  JNK activation, in-gel kinase assay, agent alone: did not activate JNK
JNK; A23187 1 μg/ml plus TPA
  JNK activity, costimulation with TPA: enhanced

## CCCCCCCCCCCCCC(=O)O[C@@H]1[C@@H](C)[C@@]2(O)[C@@H](C=C(CO)C[C@]3(O)C(=O)C(C)=C[C@@H]23)[C@H]2C(C)(C)[C@]12OC(C)=O [TPA]
[1]
  -73Col-LUC luciferase activity, agent administered alone: marginal effects
  -73Col-LUC luciferase activity, two costimuli together: synergistic activation
[2]; Jurkat, 15 minutes
  JNK activation, in-gel kinase assay, agent alone: activated
JNK; TPA 50 ng/ml, 15 minutes
  JNK activity, TPA alone: moderate increase in JNK activity

## anti-CD3: anti-CD3 monoclonal antibody OKT3
[1]
  -73Col-LUC luciferase activity, two costimuli together: synergistic activation
[2]; Jurkat, 1 μg/ml anti-CD3 and 2 μg/ml anti-CD28, 15 minutes
  JNK activity, in-gel kinase assay, simultaneous incubation with both antibodies: strong synergistic activation of both forms

## cyclosporin A [CsA]
[1]; CsA 100 ng/ml with TPA+A23187, 9 hours
  effect on induction of -73Col-LUC: inhibited
[2]; CsA 100 ng/ml, 15 minutes
  JNK activation, in-gel kinase assay, CsA added to TPA+A23187: blocked this costimulatory effect
JNK; CsA 100 ng/ml
  JNK activity, CsA added to TPA+A23187: inhibited
